Measured values reported in ChEMBL document CHEMBL1143993, “Synthesis and structure-activity relationships of a series of substituted 2-(1H-furo[2,3-g]indazol-1-yl)ethylamine derivatives as 5-HT2C receptor agonists” (Bioorg Med Chem, 2008).

How the values were obtained:
[1] = target: T1, 5-hydroxytryptamine receptor 2C (Homo sapiens, UniProt P28335); assay: Displacement of [3H]5-HT from human 5HT2C receptor expressed in CHO cells; format: cell-based
T1 sequence (P28335 whole entry): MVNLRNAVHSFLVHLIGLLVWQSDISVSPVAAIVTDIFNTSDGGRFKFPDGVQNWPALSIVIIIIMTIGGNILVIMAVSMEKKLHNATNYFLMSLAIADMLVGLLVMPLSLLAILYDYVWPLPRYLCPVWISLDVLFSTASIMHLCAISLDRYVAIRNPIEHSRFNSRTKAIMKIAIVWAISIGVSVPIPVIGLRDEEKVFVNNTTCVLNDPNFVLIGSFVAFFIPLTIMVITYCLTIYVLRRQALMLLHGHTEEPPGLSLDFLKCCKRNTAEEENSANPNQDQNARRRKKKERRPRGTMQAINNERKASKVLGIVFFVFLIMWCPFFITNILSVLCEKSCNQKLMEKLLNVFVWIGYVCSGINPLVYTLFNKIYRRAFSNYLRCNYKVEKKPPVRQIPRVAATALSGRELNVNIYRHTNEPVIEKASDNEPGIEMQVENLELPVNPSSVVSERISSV

[2] = target: T2, 5-hydroxytryptamine receptor 2A (Homo sapiens, UniProt P28223); assay: Displacement of [3H]5-HT from human 5HT2A receptor expressed in CHO cells; format: cell-based
T2 sequence (P28223 whole entry): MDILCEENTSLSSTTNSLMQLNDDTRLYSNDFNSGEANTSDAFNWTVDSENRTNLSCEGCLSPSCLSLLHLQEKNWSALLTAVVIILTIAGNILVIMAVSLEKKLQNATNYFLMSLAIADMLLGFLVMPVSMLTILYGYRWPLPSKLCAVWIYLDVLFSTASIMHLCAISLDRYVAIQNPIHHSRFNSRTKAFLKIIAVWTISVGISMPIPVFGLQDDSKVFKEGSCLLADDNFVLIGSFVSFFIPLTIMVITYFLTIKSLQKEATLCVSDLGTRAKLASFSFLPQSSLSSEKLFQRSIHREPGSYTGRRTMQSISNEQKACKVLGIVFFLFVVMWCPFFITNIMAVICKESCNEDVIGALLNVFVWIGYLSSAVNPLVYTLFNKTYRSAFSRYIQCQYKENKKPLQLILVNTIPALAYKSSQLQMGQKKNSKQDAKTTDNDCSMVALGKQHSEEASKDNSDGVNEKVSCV

[3] = target: Serotonin 2 receptors; 5-HT2a & 5-HT2c (Homo sapiens) (UniProt P28223+P28335); assay: Selectivity for human 5HT2A to human 5HT2C
Sequence of Serotonin 2 receptors; 5-HT2a & 5-HT2c (Homo sapiens) (P28223 whole entry, looked up, one chain of several): as the sequence (P28223 whole entry) above

Rattus norvegicus [4] = assay: Induction of penile erection in sc dosed rat; format: functional; conditions: read-out: MED
[5] = target: T1, 5-hydroxytryptamine receptor 2C; assay: Agonist activity at human cloned 5HT2C receptor expressed in CHO cells assessed as myo-[3H]inositol hydrolysis; format: functional, cell-based
[6] = target: T2, 5-hydroxytryptamine receptor 2A; assay: Agonist activity at human cloned 5HT2A receptor expressed in CHO cells assessed as myo-[3H]inositol hydrolysis; format: functional, cell-based
[7] = target: T3, 5-hydroxytryptamine receptor 2C (Homo sapiens) (UniProt P28335); assay: Intrinsic activity at human cloned 5HT2C receptor expressed in CHO cells assessed as maximal stimulation of 10 uM 5HT-induced myo-[3H]inositol hydrolysis; format: functional, cell-based
T3 sequence (whole entry): T1 sequence (P28335 whole entry)

[8] = target: T2, 5-hydroxytryptamine receptor 2A; assay: Intrinsic activity at human cloned 5HT2A receptor expressed in CHO cells assessed as maximal stimulation of 10 uM 5HT-induced myo-[3H]inositol hydrolysis; format: functional, cell-based
[9] = target: T4, 5-hydroxytryptamine receptor 2B (Homo sapiens, UniProt P41595); assay: Intrinsic activity at human cloned 5HT2B receptor expressed in HEK293-EBNA cells assessed as maximal stimulation of 10 uM 5HT-induced myo-[3H]inositol hydrolysis; format: functional, cell-based
T4 sequence (P41595 whole entry): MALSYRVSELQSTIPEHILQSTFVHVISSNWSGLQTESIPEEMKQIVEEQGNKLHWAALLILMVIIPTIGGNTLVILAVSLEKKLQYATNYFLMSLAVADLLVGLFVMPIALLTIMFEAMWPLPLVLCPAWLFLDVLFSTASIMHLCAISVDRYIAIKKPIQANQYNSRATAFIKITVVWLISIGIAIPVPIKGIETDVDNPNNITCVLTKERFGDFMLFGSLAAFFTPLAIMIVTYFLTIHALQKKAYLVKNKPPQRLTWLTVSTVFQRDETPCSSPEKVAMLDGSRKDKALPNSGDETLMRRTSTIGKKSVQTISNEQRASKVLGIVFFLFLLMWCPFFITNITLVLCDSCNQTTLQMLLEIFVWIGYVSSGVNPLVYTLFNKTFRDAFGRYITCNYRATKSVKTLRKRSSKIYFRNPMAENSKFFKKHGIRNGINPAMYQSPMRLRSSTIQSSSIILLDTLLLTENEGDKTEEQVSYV

Homo sapiens = species on record: Homo sapiens; assay: Selectivity ratio of EC50 for human cloned 5HT2B receptor over EC50 for human cloned 5HT2C receptor
Rattus norvegicus [10] = assay: Induction of penile erection in po dosed rat; format: functional; conditions: read-out: MED
[11] = target: T4, 5-hydroxytryptamine receptor 2B
Description: Agonist activity at human cloned 5HT2B receptor expressed in HEK293-EBNA cells assessed as myo-[3H]inositol hydrolysis

For `C[C@H](N)Cn1ncc2ccc3occc3c21`, the Ki [1] was 0.0002 µM, the Ki [2] was 0.00078 µM and the Ratio Ki [3] was 4.
`C[C@H](N)Cn1ncc2cc(Cl)c(Cl)cc21` gave a Ki [1] of 0.0075 µM, a Ki [2] of 0.011 µM and a Ratio Ki [3] of 1.
`CCCc1nn(C[C@H](C)N)c2c1ccc1occc12` showed a Ki [1] of 0.025 µM, a Ki [2] of 0.064 µM and a Ratio Ki [3] of 3.
With `C[C@H](N)Cn1ncc2ccc3sccc3c21` the Ki [1] was 0.0014 µM, the Ki [2] was 0.0067 µM and the Ratio Ki [3] was 5.
In the case of `COc1nn(C[C@H](C)N)c2c1ccc1occc12`, the Ki [1] is reported as 0.00051 µM, the Ratio Ki [3] is reported as 17 and the minimal effective dose (Rattus norvegicus [4]) is reported as 0.1 mg/kg.
`CCc1cc2c(ccc3c(CC)nn(C[C@H](C)N)c32)o1` gave a Ki [1] of 0.0027 µM, a Ki [2] of 0.051 µM and a Ratio Ki [3] of 19.
`Cc1nn(C[C@H](C)N)c2c1ccc1occc12` gave a Ki [1] of 0.013 µM, a Ki [2] of 0.017 µM and a Ratio Ki [3] of 1.
`CCc1cc2c(ccc3cnn(C[C@H](C)N)c32)o1` was tested, and the Ki [1] was 0.00089 µM, the Ki [2] was 0.013 µM and the Ratio Ki [3] was 15. The EC50 [5] was 0.001 µM, the EC50 [6] was 0.093 µM and the Emax [7] was 76%. For the same compound, the Emax [8] was 97%, the Emax [9] was 110% and the Ratio EC50 (Homo sapiens) was 3.2. It also gave a minimal effective dose (Rattus norvegicus [4]) of 0.03 mg/kg, a minimal effective dose (Rattus norvegicus [10]) of 0.3 mg/kg and an EC50 [11] of 0.0032 µM.
`C[C@H](N)Cn1ncc2ccc3ocnc3c21` showed a Ki [1] of 0.059 µM, a Ki [2] of 0.047 µM and a Ratio Ki [3] of 1.
With `Cc1cc2c(ccc3cnn(C[C@H](C)N)c32)o1` the Ki [1] was 0.0002 µM, the Ki [2] was 0.00078 µM and the Ratio Ki [3] was 4.
`C[C@H](N)Cn1ccc2cc(F)c(Cl)cc21` was tested, and the Ki [1] was 0.026 µM, the Ki [2] was 0.039 µM and the Ratio Ki [3] was 2. For the same compound, the EC50 [5] was 0.052 µM, the EC50 [6] was 0.4 µM and the Emax [7] was 88%. The Emax [8] was 91%, the Emax [9] was 130% and the Ratio EC50 (Homo sapiens) was 0.05. For the same compound, the minimal effective dose (Rattus norvegicus [4]) was 0.3 mg/kg and the EC50 [11] was 0.0024 µM.
`COc1ccc2cnn(C[C@H](C)N)c2c1` showed a Ki [1] of 0.016 µM, a Ki [2] of 0.037 µM and a Ratio Ki [3] of 2.
`C[C@H](N)Cn1ncc2ccc(Cl)c(Cl)c21` was tested, and the Ki [1] was 0.004 µM, the Ki [2] was 0.0091 µM and the Ratio Ki [3] was 2.
Compound `C[C@H](N)Cn1ncc2ccc(F)cc21` has a Ki [1] of 0.032 µM, a Ki [2] of 0.082 µM and a Ratio Ki [3] of 3.
`CCc1cc2c(ccc3c(OC)nn(C[C@H](C)N)c32)o1` showed a Ki [1] of 0.012 µM, a Ki [2] of 0.038 µM and a Ratio Ki [3] of 3.
`C[C@H](N)Cn1ncc2cc(F)ccc21` showed a Ki [1] of 0.043 µM, a Ki [2] of 0.089 µM and a Ratio Ki [3] of 2.
In the case of `CC(C)c1cc2c(ccc3cnn(C[C@H](C)N)c32)o1`, the Ki [1] is reported as 0.02 µM, the Ki [2] is reported as 0.087 µM and the Ratio Ki [3] is reported as 4.
Compound `CCc1nn(C[C@H](C)N)c2c1ccc1occc12` has a Ki [1] of 0.0025 µM, a Ki [2] of 0.011 µM and a Ratio Ki [3] of 4.
`COc1ccc2cnn(C[C@H](C)N)c2c1Cl` gave a Ki [1] of 0.14 µM, a Ki [2] of 1.2 µM and a Ratio Ki [3] of 9.
For `CCc1cc2c(ccc3c(C)nn(C[C@H](C)N)c32)o1`, the Ki [1] was 0.005 µM, the Ki [2] was 0.046 µM and the Ratio Ki [3] was 9.
